Several values for one entry are separate records, joined by “and”; a condition that tells them apart may be missing. Equal values may be shown once. [nps] = N3'→P5' thiophosphoramidate linkage; {Palm} = palmitoyl lipid
Columns and labels:
Type in all cases: in vivo, human
[1] = system: RBC transfusion-dependent patients with IPSS low or intermediate-1 risk MDS; test: Phase 3 trial: hematologic improvement-erythroid (HI-E) and hemoglobin
Text: The primary end point was rate of RBC-TI for 8 consecutive weeks or longer. Key secondary end points included rate of 24-week TI, duration of TI, and the rate of hematologic response (hematologic improvement-erythroid [HI-E], based on modified International Working Group [IWG] 2006 criteria, and HI-E per revised IWG 2018). Additional secondary end points included relative change in number of RBC transfusions received by patients, relative change in hemoglobin, and safety. The changes in mutational status and in patient-reported fatigue over time (assessed by the Functional Assessment of Chronic Illness Therapy [FACIT] Fatigue Scale) were exploratory end points. Subgroup analyses were performed including baseline presence or absence of RS, prior RBC transfusion burden (≥4 to ≤6 or >6 RBC units/8-weeks during a 16-week period prior to randomization), and low or intermediate-1 IPSS risk categories. Subgroup analyses were also performed, including baseline mutation status as well as telomerase activity (TA), telomere lengths (TL), and human telomerase reverse transcriptase (hTERT) levels. Peripheral blood hematology, bone marrow evaluation, mutation assessment, and cytogenetic evaluation were performed centrally and responses assessed by an independent review committee (IRC). Rate of 1-year RBC-TI was reported as a post hoc analysis.
Key Secondary End Point Rate of hematologic improvement, including HI-E: per modified IWG 2006.
Changes over time in transfusion units and hemoglobin levels were compared by a mixed model for repeated measures with weeks since randomization, prior transfusion burden, minimum hemoglobin in the 8 weeks prior to first dose (for hemoglobin), and treatment arm as the independent variables with autoregressive moving average covariance structure.

DNMT3A = test: Gene mutation analysis (NGS): DNMT3A VAF and clinical response; conditions: imetelstat group
Text: VAF for the target genes can be determined and/or measured using any convenient methods. In one such method, whole blood collected in an EDTA tube is used to perform Next Generation Sequencing (NGS), for example, using LeukoVantage®. NGS using any other sequencing platform can be used, for example, nanopore sequencing, paired-end sequencing, Ion Torrent sequencing, and single molecule real time (SMRT) sequencing. An MDS gene panel can be used. For example, a gene panel containing one or more of SF3B1, TET2, DNMT3A and ASXL1 can be used. […] The percentage of mutation reads will be reported and can be used to assess the size of the clonal population. VAF is the percentage of sequence reads observed matching a specific DNA variant divided by the overall coverage at that locus. […]
VAF changes were assessed from blood taken pre- and every 12 weeks post-treatment in patients with greater than or equal to 5% variant allele at baseline and >1 post-baseline assessment. T-tests evaluated group comparison, Fisher's exact test evaluated association, and linear regression evaluated correlation. […]
Blood samples were collected at baseline and during study visits approximately every 12 weeks. […] The lower limit of sensitivity is 5% mutated alleles in a mixed population; the percentage of mutation reads is reported and used to assess the size of the clonal population.

patients with LR-MDS = test: Patient-reported fatigue (FACIT Fatigue Scale); conditions: PRO population
Text: To measure patient-reported fatigue, data were collected using the validated Functional Assessment of Chronic Illness Therapy (FACIT) Scale and analyzed in all randomized patients with available fatigue data at baseline (PRO population). The FACIT is a 13-item questionnaire measuring fatigue during daily activity. Proportion of sustained, meaningful deterioration/improvement was defined as percentage of pts with ≥3-point decrease/increase on the FACIT Fatigue Scale (0-52) for ≥2 consecutive treatment cycles. Additionally, time-to-deterioration/improvement was estimated by Kaplan-Meier analysis. Sensitivity analyses were performed in the intent-to-treat population and with alternate definitions of meaningful deterioration.
Exploratory End Point Patient-Reported Fatigue: Proportion of sustained meaningful deterioration/improvement was defined as percentage of patients with ≥3-point decrease/increase on the Functional Assessment of Chronic Illness Therapy (FACIT) Fatigue Scale (0-52) for ≥2 consecutive treatment cycles.
Meaningful improvement in FACIT Fatigue: Psychometric supportive evidence for the use of the FACIT Fatigue in the context of LR-MDS confirms the previously published threshold of a 3-point change for meaningful within-patient change for the FACIT Fatigue.

Substance: Imetelstat: first-in-class telomerase inhibitor; synthetic lipid-conjugated 13-mer oligonucleotide N3′→P5′-thiophosphoramidate (TAGGGTTAGACAA; all [nps], 5' {Palm}, sugars by position and methylation of C not given here)
- Median hemoglobin peak ([1]; 8-week TI responders): 11.3 g/dL
- Median hemoglobin increase from pretreatment to peak ([1]; 8-week TI responders, during TI period): 3.55 g/dL and 3.6 g/dL
- Major HI-E response, % difference vs placebo ([1]; HTB subjects): 30.9%
- Minor HI-E response, % difference vs placebo ([1]; HTB subjects): 34.8%
- Major HI-E response (16-week RBC-TI), patients ([1]; HTB subjects (97)): 30 No. of patients
- Minor HI-E response (50% RBC units reduction in 16 weeks), patients ([1]; HTB subjects (97)): 43 No. of patients
- HI-E response (16-week RBC-TI), % difference vs placebo ([1]; LTB subjects): 11.1%
- HI-E response (16-week RBC-TI), patients ([1]; LTB subjects (21)): 7 No. of patients
- HI-E per IWG 2006, patients ([1]; N=118): 75 n
- HI-E per IWG 2018, patients ([1]; N=118): 50 n
- Increase in hemoglobin ≥1.5 g/dL for ≥8 wk, patients ([1]; N=118): 40 n
- Transfusion reduction by 50%/16 weeks rate ([1]; N=118): 43.2%
- Transfusion reduction by 50%/16 weeks, patients ([1]; N=118): 51 n
- Transfusion reduction by ≥4 units/8 wk, patients ([1]; N=118): 71 n
- HI-E per IWG 2018 rate ([1]; N=118, listed as imetelstat): 42% and 42.4%
- Increase in hemoglobin ≥1.5 g/dL for ≥8 wk rate ([1]; N=118, listed as imetelstat): 34%
- HI-E IWG 2006, % difference vs placebo ([1]; in vivo): 11.9%,
- HI-E IWG 2018, % difference vs placebo ([1]; in vivo): 29.0%,
- Increase in hemoglobin ≥1.5 g/dL for ≥8 wk, % difference vs placebo ([1]; in vivo): 23.9%
- Transfusion reduction by ≥4 units/8 wk, % difference vs placebo ([1]; in vivo): 10.2%,
- Median increase in hemoglobin during the longest TI interval ([1]; ≥1-year TI responders): 5.2 g/dL and 5.18 g/dL
- Pearson's r: maximum % reduction in DNMT3A VAF vs maximum change in hemoglobin (DNMT3A; n=13): −0.667
- Pearson's r: maximum % reduction in DNMT3A VAF vs duration of TI (DNMT3A; n=18): −0.545
- HR, time to first sustained meaningful improvement in fatigue vs placebo (patients with LR-MDS): 1.34
- Median time to first sustained, meaningful improvement in fatigue (patients with LR-MDS): 28.3 weeks
- Patients with any episode of sustained, meaningful deterioration in fatigue (patients with LR-MDS; 118 patients): 43.2%
- Patients with sustained, meaningful improvement in fatigue (patients with LR-MDS; 118 patients): 50.0%

Source: patent US20240285773A1, “METHODS OF TREATING MYELODYSPLASTIC SYNDROME AND MONITORING THE TREATMENT” (Geron Corporation, priority 2023, published 2024)
